Results published in patent US20060154910A1, “Use of steroids to treat ocular disorders” (priority 2003, published 2006).

How the values were obtained:
[1] = test system: rabbits; experiment: Rabbit dexamethasone acetate induced IOP elevation, topical ocular anecortave acetate; format: in vivo; conditions: for IOP change versus vehicle treated group: topical ocular three times a day for 2 weeks, rabbits on weekly subTenon's dexamethasone acetate 1 mg/kg, FIG. 2
Protocol: Three groups of rabbits received weekly subTenon's injections of dexamnethasone acetate (1 mg/kg) for 4 weeks. After two weeks, the IOPs of all three groups measured approximately […]. The rabbits were then treated with vehicle, 0.1% anecortave acetate, a 1% anecortave acetate by topical ocular dosing three times a day for the remaining 2 weeks. The IOP continued to increase in the vehicle treated group.

[2] = test system: patients with documented glucocorticoid induced ocular hypertension; experiment: Topical anecortave acetate in patients with glucocorticoid induced ocular hypertension (IOP); format: in vivo, human; conditions: patients (n=15), 1% eye drops topically three times per day for up to 12 weeks, glucocorticoid medication continued; reduced from 29 mm Hg; FIG. 1
Protocol: Patients (η=15) with documented glucocorticoid induced ocular hypertension were treated topically with 1% anecortave acetate eye drips three times per day for up to 12 weeks. The patients continued to receive their glucocorticoid medication.

Row | SMILES | IOP change versus vehicle treated group ([1]; 0.1% anecortave acetate) | IOP change versus vehicle treated group ([1]; 1% anecortave acetate) | IOP after anecortave acetate treatment [2] | IOP after two weeks of glucocorticoid injections ([1]; rabbits, weekly subTenon's injections 1 mg/kg, after two weeks, all three groups)
1 | CC(=O)OCC(=O)[C@@]1(O)CC[C@H]2[C@@H]3CCC4=CC(=O)CC[C@]4(C)C3=CC[C@@]21C [anecortave acetate, 4,9(11)-pregnadien-17α,21-diol-3,20dione-21-acetate] | significantly lowered | significantly lowered | 19-22 mm Hg | –
2 | CC(=O)OCC(=O)[C@@]1(O)[C@H](C)C[C@H]2[C@@H]3CCC4=CC(=O)C=C[C@]4(C)[C@@]3(F)[C@@H](O)C[C@@]21C [dexamnethasone acetate, dexamethasone acetate, reference compound] | – | – | – | approximately 5 mm Hg
